Where a name gives a salt, the structure may show the parent alone. Read-outs that look alike come from different tables or passages of the source.
Columns and labels:
[1] = target: σ1R; conditions: cited from earlier work
[2] = target: σ2R; conditions: cited from earlier work
[3] = tested on: σ1R; assay: σ1R radioligand binding ([3H](+)-pentazocine, brain cortex membranes); conditions: σ2R Ki / σ1R Ki (selectivity factor)
[4] = target: T1, human recombinant histamine H3R (Homo sapiens, UniProt Q9Y5N1); conditions: mean [CI 95%]; read-out: hH3R Ki; cited from earlier work
T1 construct: expressed in transfected cells

[5] = target: T2, σ2R (Rattus norvegicus, UniProt Q5U3Y7); assay: σ2R radioligand binding ([3H]DTG, liver membranes)
T2 sequence (Q5U3Y7 1-176): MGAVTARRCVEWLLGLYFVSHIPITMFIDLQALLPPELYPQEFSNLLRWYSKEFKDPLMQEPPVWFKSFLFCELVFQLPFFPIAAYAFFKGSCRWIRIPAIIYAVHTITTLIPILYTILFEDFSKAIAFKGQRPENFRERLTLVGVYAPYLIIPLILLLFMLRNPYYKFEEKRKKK

[6] = target: σ1R (Cavia porcellus, UniProt Q60492); assay: σ1R radioligand binding ([3H](+)-pentazocine, brain cortex membranes)
[7] = target: T1, human recombinant histamine H3R; assay: hH3R radioligand depletion binding assay ([3H]Nα-methylhistamine); conditions: mean [CI 95%]; HEK293 cells; data not published yet
[8] = tested on: female CD1 mice; assay: loperamide-induced antinociception, paw pressure struggle response latency; type: in vivo; conditions: mice
[9] = target: H3R; conditions: Figure 1, clinically evaluated H3R antagonists; cited from earlier work
[10] = exptl Ki σ2, Table 3, given as mean ± spread
[11] = σ2R Ki, mean [CI 95%], [3H]DTG with (+)-pentazocine mask
[12] = exptl Ki σ1, Table 3, given as mean ± spread
[13] = σ1R Ki, mean [CI 95%], [3H](+)-pentazocine
[14] = Figure 1, clinically evaluated H3R antagonists, read-out: σ1R Ki
[15] = Table S1, well-known ligands (test set), no reference given, read-out: Exp. σ1 Ki
[16] = Table S1, well-known ligands (test set), no reference given, read-out: Exp. σ2 Ki

T1 sequence (Q9Y5N1 whole entry): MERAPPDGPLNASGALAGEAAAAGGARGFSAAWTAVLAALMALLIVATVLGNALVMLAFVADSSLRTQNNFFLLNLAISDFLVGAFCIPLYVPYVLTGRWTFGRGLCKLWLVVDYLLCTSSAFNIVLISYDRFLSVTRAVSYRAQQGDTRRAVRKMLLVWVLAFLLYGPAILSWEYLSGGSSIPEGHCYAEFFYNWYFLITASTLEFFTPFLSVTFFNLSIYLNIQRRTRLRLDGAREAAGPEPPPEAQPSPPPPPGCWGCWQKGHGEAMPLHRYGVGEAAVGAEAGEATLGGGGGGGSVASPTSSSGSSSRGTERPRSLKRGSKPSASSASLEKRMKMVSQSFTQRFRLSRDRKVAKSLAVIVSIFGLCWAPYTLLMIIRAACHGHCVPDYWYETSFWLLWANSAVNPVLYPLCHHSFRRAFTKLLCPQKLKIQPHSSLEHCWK
Sequence of σ1R (Cavia porcellus, UniProt Q60492) (Q60492 whole entry): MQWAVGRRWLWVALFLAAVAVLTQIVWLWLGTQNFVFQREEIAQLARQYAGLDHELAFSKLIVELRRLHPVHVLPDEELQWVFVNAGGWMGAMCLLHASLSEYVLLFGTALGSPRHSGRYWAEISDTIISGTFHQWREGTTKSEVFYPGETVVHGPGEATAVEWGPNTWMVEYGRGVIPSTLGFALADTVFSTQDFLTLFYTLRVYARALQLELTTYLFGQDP

Structure (SMILES)	σ2/σ1 ratio [3]	Ki [5, 10]	Ki [5, 11]	Ki [6, 12]	Ki [6, 13]	also measured
Cc1cc(OCCN2CCOCC2)nn1-c1ccc2ccccc2c1 [S1RA, 4-[2-[[5-methyl-1-(2-naphthalenyl)-1H-pyraol-3-yl]oxy]ethyl]morpholine hydrochloride, reference compound]						Ki [7]: > 10 µM; effect on loperamide-induced antinociception ([8]; ipl 100 μg + loperamide 4 mg/kg sc, injected paw): significantly increased the antinociceptive effect induced by loperamide; effect alone on struggle response latency to mechanical stimulus ([8]; ipl 100 μg, 450 g paw pressure, without loperamide): did not change the response to the mechanical stimulus
C#CCN(C)Cc1cc2cc(OCCCN3CCCCC3)ccc2n1C [Contilisant]						Ki [9]: 0.0108 µM; Ki [1, 14]: 0.0652 µM; Ki ([2]; Figure 1, clinically evaluated H3R antagonists, read-out: σ2R Ki): 0.326 µM
CNC(=O)c1ccc(Oc2ccc3c(c2)CCN(C2CCC2)CC3)nc1 [GSK189254]						Ki [9]: 0.0017 µM; Ki [1, 14]: 0.24 µM
COc1cc2c(cc1OC)CN(CCCCNC(=O)c1cc(C)ccc1OCCF)CC2 [F-ISO]						Ki [1, 15]: 0.33 µM; Ki [2, 16]: 0.00695 µM
C=CCN1CC[C@]23c4c5ccc(O)c4O[C@H]2C(=O)CC[C@@]3(O)[C@H]1C5 [naloxone, Naloxone hydrochloride, reference compound]						effect on antinociception of loperamide + S1RA ([8]; 1 mg/kg sc, identical with 5 or 11): full reversion of the antinociceptive effect of the combination of loperamide + S1RA
O=C(OCCN1CCOCC1)C1(c2ccccc2)CCCCC1 [PRE-084, 2-[4-morpholinethyl]1-phenylcyclohexanecarboxylate hydrochloride]						Ki [7]: > 10 µM; effect of coadministration on potentiation of loperamide antinociception by S1RA ([8]; 75 μg ipl with S1RA, loperamide-treated, identical with 5 or 11): completely abolished the effect of the σ1R antagonist; Ki [2, 16]: 13.1 µM; Ki ([2]; reference σ1R ligands, read-out: σ2R Ki): > 10 µM
O=C(c1ccc(OCCCN2CCN(c3ccncc3)CC2)cc1)C1CC1 [Compound 4]	0.1	0.101 ± 0.0154 µM	0.101 µM	1.53 ± 0.275 µM	1.53 µM	Ki [4]: 0.003 µM
c1cc(OCCCN2CCCCC2)ccc1CN1CCCCC1 [JNJ-5207852]						Ki [9]: 0.0003 µM; Ki [1, 14]: 1.17 µM
N#Cc1ccc(-c2ccc(OCCCN3CCN(c4ccncc4)CC3)cc2)cc1 [Compound 7]		0.0752 ± 0.013 µM	0.0752 µM			
O=C(c1ccc(F)cc1)c1ccc(OCCCN2CCN(c3ccncc3)CC2)cc1 [Compound 10]	0.1	0.164 ± 0.0346 µM	0.164 µM	1.31 ± 0.332 µM	1.31 µM	
O=C(c1ccccc1)c1ccc(OCCCN2CCCCC2)cc1 [Compound 12]	6.5	0.0962 ± 0.0147 µM	0.0962 µM	0.0148 ± 0.00186 µM	0.0148 µM	Ki [7]: 0.022 µM
CC(C(O)c1ccc(O)cc1)N1CCC(Cc2ccccc2)CC1 (stereo not shown) [Ifenprodil]						Ki [1, 15]: 0.00102 µM; Ki [2, 16]: 0.0188 µM
O=C(c1ccccc1)c1ccc(OCCCN2CCN(c3ccncc3)CC2)cc1 [Compound 8]		0.0292 ± 0.00181 µM	0.0292 µM	0.726 ± 0.177 µM	0.726 µM	
CN(C)C(=O)C(CCN1CCC(O)(c2ccc(Cl)cc2)CC1)(c1ccccc1)c1ccccc1 [loperamide, loperamide hydrochloride, reference compound]						struggle response latency versus solvent ([8]; 4 mg/kg sc alone): minimal (nonsignificant) increase in the struggle response latency
C[C@@H]1CCCN1CCc1cc2cc(-c3ccc(C#N)cc3)ccc2o1 [ABT-239]						Ki [9]: 0.0159 µM; Ki [1, 14]: 0.0063 µM
CN1CCN(CCc2ccc(Cl)c(Cl)c2)CC1 [BD1063]						Ki [1, 15]: 0.0137 µM

Second part, led by results:

σ2/σ1 ratio [3]	Ki [5, 10]	Ki [5, 11]	Ki [6, 12]	Ki [6, 13]	Structure (SMILES)	also measured
0.00012					COOc1c(OC)cc(I)cc1C(=O)NCCCCN1CCc2cc(OC)c(OC)cc2C1 [RHM-4, N-(4-(6,7-Dimethoxy-3,4-dihydroisoquinolin-2(1H)-yl)butyl)-5-iodo-3-methoxy-2-(methylperoxy)benzamide]	Ki ([1]; read-out: σ1R Ki): 2.15 µM; Ki ([2]; read-out: σ2R Ki): 0.00026 µM
0.1	0.0643 ± 0.014 µM	0.0643 µM	0.592 ± 0.0941 µM	0.592 µM	CCc1ccc(OCCCN2CCN(c3ccncc3)CC2)cc1 [Compound 1]	Ki [4]: 0.0404 µM
0.1	0.0324 ± 0.00346 µM	0.0324 µM	0.641 ± 0.0879 µM	0.641 µM	O=C(c1ccc(Cl)cc1)c1ccc(OCCCN2CCN(c3ccncc3)CC2)cc1 [Compound 9]	
0.2	0.108 ± 0.0192 µM	0.108 µM	0.638 ± 0.12 µM	0.638 µM	c1ccc(-c2ccc(OCCCN3CCN(c4ccncc4)CC3)cc2)cc1 [Compound 6]	Ki [4]: 0.0211 µM
<0.2	1.79 ± 0.415 µM	1.8 µM	> 10 µM	> 10 µM	CC(=O)c1ccc(OCCCCN2CCN(c3ccncc3)CC2)cc1 [Compound 15]	
0.2	0.247 ± 0.0394 µM	0.247 µM	1.41 ± 0.312 µM	1.41 µM	CC(=O)c1ccc(OCCCN2CCN(c3ccncc3)CC2)cc1 [Compound 3]	
0.1	0.0597 ± 0.0112 µM	0.0597 µM	0.408 ± 0.111 µM	0.408 µM	CC(=O)c1ccc(OCCCCCCCCN2CCN(c3ccncc3)CC2)cc1 [Compound 19]	Ki [4]: 0.0405 µM
4.0	0.151 ± 0.0264 µM	0.151 µM	0.0378 ± 0.0161 µM	0.0378 µM	CC(=O)c1ccc(OCCCCCCN2CCN(c3ccncc3)CC2)cc1 [Compound 16]	Ki [4]: 0.0127 µM
0.7	0.179 ± 0.0272 µM	0.179 µM	0.255 ± 0.048 µM	0.255 µM	CC(C)(C)c1ccc(OCCCCCCN2CCN(c3ccncc3)CC2)cc1 [Compound 18]	Ki [4]: 0.397 µM
0.4	0.11 ± 0.0159 µM	0.11 µM	0.248 ± 0.0309 µM	0.248 µM	CCC(=O)c1ccc(OCCCCCCN2CCN(c3ccncc3)CC2)cc1 [Compound 17]	Ki [4]: 0.0169 µM
0.4	0.101 ± 0.0193 µM	0.101 µM	0.285 ± 0.0504 µM	0.285 µM	CCC(C)(C)c1ccc(OCCCCN2CCN(c3ccncc3)CC2)cc1 [Compound 14]	
0.2	0.0659 ± 0.011 µM	0.0659 µM	0.274 ± 0.0404 µM	0.274 µM	CCC(=O)c1ccc(OCCCCCCCCN2CCN(c3ccncc3)CC2)cc1 [Compound 20]	Ki [4]: 0.0389 µM
3.4	0.175 ± 0.0351 µM	0.175 µM	0.0518 ± 0.0091 µM	0.0518 µM	CC(C)(C)c1ccc(OCCCCN2CCN(c3ccncc3)CC2)cc1 [Compound 13]	
1.2	0.13 ± 0.00823 µM	0.13 µM	0.112 ± 0.00945 µM	0.112 µM	CC(C)(C)c1ccc(OCCCN2CCN(c3ccncc3)CC2)cc1 [Compound 2]	
